The record followed here is patent US20140148498A1, “METHODS AND COMPOSITIONS FOR THE TREATMENT OF MARFAN SYNDROME AND ASSOCIATED DISORDERS” (THE JOHNS HOPKINS UNIVERSITY, priority 2011, published 2014).

SMILES strings stand for the structures. “Also recorded” adds a separate entry of the source.

In assay [1] the test system is Fbn1^C1039G/+ mice. In words: Aortic wall architecture score (VVG staining). It counts as in vivo. Conditions: FIG. 9. Here is the method:
Latex-infused ascending aortas were transected just above the level of the aortic valve, and 2-3 mm transverse sections were mounted in 4% agar prior to paraffin fixation. Five micrometer aortic sections underwent Verhoeff-van Giesen (VVG) staining and were imaged at 40× magnification, using a Nikon Eclipse E400 microscope. Wall thickness of the aortic media was measured by a single blinded observer at 16 different locations around the most proximal ascending aortic ring and averaged. Wall architecture of 4 representative sections for each mouse was assessed by the same 3 blinded observers and graded on an arbitrary scale of 1 (indicating no breaks in the elastic fiber) to 5 (indicating diffuse fragmentation), and the results were averaged. Elastic fiber content was quantified in four separate representative images of each section of the most proximal ascending aorta by a single blinded observer, using NIS Elements Advanced Research (Nikon, Japan). The aortic media and the elastic fibers were individually outlined and their areas calculated. The respective areas were averaged from all the images of a given aortic section and the ratio of elastic fiber content to total aortic media was determined. Individual lobes of the lungs were mounted in 4% agar and fixed in paraffin. Five micrometer lung sections underwent hematoxylin and eosin staining and were imaged at 10× magnification, using a Nikon Eclipse E400 microscope. Five fields were analyzed for each lobe of each lung by a single blinded observer, and a mean linear intercept was calculated using a previously described method (J. P. Habashi et al., Science 312, 117 (2006); and E. R. Neptune et al., Nat. Genet. 33, 407 (2003)).

In a further assay the test system is Smad2. In words: Western blot of aortic root and proximal ascending aorta: Smad2 activation (Examples 4-5). It counts as in vivo, mice. From the text:
(§1) All mice were cared for under strict compliance with the Animal Care and Use Committee of the Johns Hopkins University School of Medicine. The Fbn1^C1039G/+ and AT2KO lines were maintained n a pure C57BL/6 background (backcrossed for greater than 9 generations), allowing for valid comparisons. In order to further accommodate the potential for temporal- or background-specified variation, all comparisons were made between contemporary littermates when possible. The AT21C0 mice were obtained as a generous gift from Dr. Inagami (T. Ichiki et al., Nature 377, 748 (1995)). The Agtr2 gene resides on the X chromosome and therefore we used either male mice carrying the mutated allele (who are hemizygous) or homozygous females, both of which have been previously shown to be functionally null for the AT2 receptor (T. Ichiki et al., Nature 377, 748 (1995)). Mice were sacrificed with an inhalation overdose of halothane (Sigma-Aldrich, St. Louis). Mice underwent immediate laparotomy, descending abdominal aortic transection, and PBS (pH 7.4) was infused through the right and left ventricles to flush out the blood. Mice that were analyzed for Western Blot analysis had their proximal ascending aortas (root to right brachiocephalic trunk) immediately dissected out, flash frozen in liquid nitrogen and stored at −80d until further processing. Mice that were analyzed for aortic histology had latex injected under low pressure into the left ventricular apex until it was visible in the descending abdominal aorta. Mice that were analyzed for lung histology had their trachea intubated with a 20-gauge blunted needle, and 0.5% agar was infused under a low and constant pressure to gradually inflate the lungs. The trachea was then tied-off using vicryl and the needle was removed. Mice were fixed for 24 hours in 10% buffered formalin, after which the heart, aorta and lungs were removed and stored in 70% ethanol.
Mouse aortic root and ascending aortas (aortic root excluding the aortic valve to origin of right brachiocephalic trunk) were harvested, snap-frozen in liquid nitrogen and stored at −80° C. until processed. Protein was extracted using the reagents and protocol from a Total Protein Extraction Kit containing protease inhibitor and Protein Phosphatase Inhibitor Cocktail (Millipore, MA). Aortas were homogenized using a pellet pestle motor (Kimble-Kontes, NJ) as per the extraction kit protocol. […] Equal protein loading of samples was determined by a protein assay (BioRad, CA), and confirmed by probing with antibodies against β-Actin or GAPDH (Sigma, Mo.). […] Blots were then washed in PBS-T, developed using SuperSignalWest HRP substrate (Pierce Scientific, IL), exposed to BioMax Scientific Imaging Film (Sigma, Mo.) and quantified using Imaged analysis software (NIH, MD).
(In western blotting, separated proteins are transferred to a membrane and probed.)

The test system of assay [2] is Fbn1^C1039G/+ mice. In words: Systolic blood pressure by tail cuff. In kind it is in vivo. Conditions: compared to placebo-treated animals, FIG. 8. How it is done:
Mice were started on medication at 8 weeks of age and continued for 7 months. Losartan was dissolved in drinking water and filtered to reach a concentration of 0.6 g/L, giving an estimated daily dose of 40-60 mg/kg/day. Enalapril was dissolved in drinking water and filtered to reach a final concentration of 0.15 g/L, giving an estimated daily dose of 10-15 mg/kg/day. […] Spironolactone was dissolved in drinking water and filtered to give an estimated dose of 20 mg/kg/day, a dose previously shown to have in-vivo phenotypic benefit in cardiovascular disease states (S. Sakurabayashi-Kitade et al., Atherosclerosis 206, 54 (2009)). Placebo-treated animals received regular drinking water. Blood pressures were analyzed by taking 20 tail cuff blood pressures per day over 5 days in each mouse to habituate the mice to the tail cuff pressure system, and the blood pressures obtained on the last day were averaged. At least 4 mice for each treatment group were analyzed.

The test system of a further assay is ERK1/2. In words: Western blot of aortic root and proximal ascending aorta: ERK1/2 activation (Examples 4-5). It counts as in vivo, mice.
From the text: as §1, with “The trachea was then tied-off using vicryl and the needle was removed. Mice were fixed for 24 hours in 10% buffered formalin, after which the heart, aorta and lungs were removed and stored in 70% ethanol.” left out
Mouse aortic root and ascending aortas (aortic root excluding the aortic valve to origin of right brachiocephalic trunk) were harvested, snap-frozen in liquid nitrogen and stored at −80° C. until processed. […] Equal protein loading of samples was determined by a protein assay (BioRad, CA), and confirmed by probing with antibodies against β-Actin or GAPDH (Sigma, Mo.). […]

With `CCCCc1nc(Cl)c(CO)n1Cc1ccc(-c2ccccc2-c2nn[nH]n2)cc1` [losartan], the “Aortic wall architecture score” value with Fbn1^C1039G/+ mice [1] was “significantly more beneficial than both placebo and enalapril treatment; also recorded: significant improvement”. Further, the Smad2 activation result was “significantly decreased Smad2 activation” in the assay on Smad2 (Fbn1^C1039G/+ mice, FIG. 10B) and “no significant change; also recorded: no significant difference” in the assay on Smad2 (treated AT2KO:Fbn1^C1039G/+ versus treated Fbn1^C1039G/+ mice, FIG. 14). In the assay with Fbn1^C1039G/+ mice [2], the Systolic blood pressure result is reported as “equal reduction in systolic blood pressure”. The ERK1/2 activation entry was “ability to inhibit ERK1/2 activation is lost; also recorded: reduced ability to lower ERK1/2 activation; also recorded: loses its ability to decrease ERK1/2 activation” in the assay with ERK1/2 (AT2KO:Fbn1^C1039G/+ mice, FIG. 10C and 14); “reduced it to WT levels; also recorded: reduced ERK1/2 activation to levels indistinguishable from WT littermates” with ERK1/2 (Fbn1^C1039G/+ mice, FIG. 10B).
